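Step 1: Grow cells in 96-well plates. Step 2: Expose to compound for 48 hours at 5 concentrations. Step 3: Interpolate endpoints linearly; if unreached, use highest concentration. GI50 is the concentration that inhibits growth by half. The concentration for full growth arrest is given as TGI.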
Assays:
Assay in all cases: growth of human tumour cells (NCI), 48 h
NCI-H226 lung = test system: NCI-H226 lung
NCI-H23 lung = test system: NCI-H23 lung
SNB-19 CNS = test system: SNB-19 CNS
PC-3 prostate = test system: PC-3 prostate
HOP-92 NSCLC = test system: HOP-92 NSCLC
M14 melanoma = test system: M14 melanoma
DU-145 prostate = test system: DU-145 prostate
HCT-116 colon = test system: HCT-116 colon
HOP-62 NSCLC = test system: HOP-62 NSCLC
786-0 renal = test system: 786-0 renal
SK-MEL-28 melanoma = test system: SK-MEL-28 melanoma
OVCAR-3 ovarian = test system: OVCAR-3 ovarian
HL-60(TB) leukemia = test system: HL-60(TB) leukemia
NCI-H460 lung = test system: NCI-H460 lung
SN12C renal = test system: SN12C renal
RXF 393 renal = test system: RXF 393 renal
SF-268 CNS = test system: SF-268 CNS
TK-10 renal = test system: TK-10 renal
NCI-H522 lung = test system: NCI-H522 lung
MALME-3M melanoma = test system: MALME-3M melanoma
HS 578T breast = test system: HS 578T breast
MDA-MB-468 breast = test system: MDA-MB-468 breast
BT-549 breast = test system: BT-549 breast
MDA-MB-231 breast = test system: MDA-MB-231 breast
HCT-15 colon = test system: HCT-15 colon
LOX IMVI melanoma = test system: LOX IMVI melanoma
CCRF-CEM leukemia = test system: CCRF-CEM leukemia
SNB-75 CNS = test system: SNB-75 CNS
EKVX NSCLC = test system: EKVX NSCLC
MDA-MB-435 = test system: MDA-MB-435
SK-MEL-2 melanoma = test system: SK-MEL-2 melanoma
SW-620 colon = test system: SW-620 colon
HT29 colon = test system: HT29 colon
SF-539 CNS = test system: SF-539 CNS
UACC-257 melanoma = test system: UACC-257 melanoma
SF-295 CNS = test system: SF-295 CNS
A549 NSCLC = test system: A549 NSCLC
SR leukemia = test system: SR leukemia
OVCAR-5 ovarian = test system: OVCAR-5 ovarian
ACHN renal = test system: ACHN renal
UACC-62 melanoma = test system: UACC-62 melanoma
T-47D breast = test system: T-47D breast
SK-OV-3 ovarian = test system: SK-OV-3 ovarian
CAKI-1 renal = test system: CAKI-1 renal
OVCAR-4 ovarian = test system: OVCAR-4 ovarian
SK-MEL-5 melanoma = test system: SK-MEL-5 melanoma
MOLT-4 leukemia = test system: MOLT-4 leukemia
A498 renal = test system: A498 renal
OVCAR-8 ovarian = test system: OVCAR-8 ovarian
MCF7 breast = test system: MCF7 breast
IGROV1 ovarian = test system: IGROV1 ovarian
UO-31 renal = test system: UO-31 renal
KM12 colon = test system: KM12 colon
HCC-2998 colon = test system: HCC-2998 colon
RPMI-8226 leukemia = test system: RPMI-8226 leukemia
COLO 205 colon = test system: COLO 205 colon
U251 CNS = test system: U251 CNS

CSc1ccccc1NC(=O)c1ccc2nn(/C(C#N)=C/c3ccccn3)nc2c1
GI50 (NCI-H226 lung): 13.5 µM | TGI (NCI-H226 lung): 28.5 µM | GI50 (NCI-H23 lung): 5.13 µM | TGI (NCI-H23 lung): 18.2 µM | GI50 (SNB-19 CNS): 12.8 µM | TGI (SNB-19 CNS): 26.5 µM | GI50 (PC-3 prostate): 7.04 µM | TGI (PC-3 prostate): 23.7 µM | GI50 (HOP-92 NSCLC): 6.41 µM | TGI (HOP-92 NSCLC): 23.9 µM | GI50 (M14 melanoma): 2.96 µM | TGI (M14 melanoma): 10.4 µM | GI50 (DU-145 prostate): 4.38 µM | TGI (DU-145 prostate): 15 µM | GI50 (HCT-116 colon): 2.14 µM | TGI (HCT-116 colon): 4.72 µM | GI50 (HOP-62 NSCLC): 13.1 µM | TGI (HOP-62 NSCLC): 27.2 µM | GI50 (786-0 renal): 3.68 µM | TGI (786-0 renal): 12.4 µM | GI50 (SK-MEL-28 melanoma): 2.06 µM | TGI (SK-MEL-28 melanoma): 4.57 µM | GI50 (OVCAR-3 ovarian): 2.29 µM | TGI (OVCAR-3 ovarian): 5.95 µM | GI50 (HL-60(TB) leukemia): 2.07 µM | TGI (HL-60(TB) leukemia): 6.58 µM | GI50 (NCI-H460 lung): 3.16 µM | TGI (NCI-H460 lung): 11.6 µM | GI50 (SN12C renal): 4.53 µM | TGI (SN12C renal): 16.1 µM | GI50 (RXF 393 renal): 1.78 µM | TGI (RXF 393 renal): 4.16 µM | GI50 (SF-268 CNS): 10.3 µM | TGI (SF-268 CNS): 28.1 µM | GI50 (TK-10 renal): 4.26 µM | TGI (TK-10 renal): 15.9 µM | GI50 (NCI-H522 lung): 1.65 µM | TGI (NCI-H522 lung): 3.43 µM | GI50 (MALME-3M melanoma): 2 µM | TGI (MALME-3M melanoma): 4.25 µM | GI50 (HS 578T breast): 3.19 µM | TGI (HS 578T breast): 14.3 µM | GI50 (MDA-MB-468 breast): 1.84 µM | TGI (MDA-MB-468 breast): 4.2 µM | GI50 (BT-549 breast): 6.17 µM | TGI (BT-549 breast): 18.7 µM | GI50 (MDA-MB-231 breast): 2.91 µM | TGI (MDA-MB-231 breast): 8.48 µM | GI50 (HCT-15 colon): 1.73 µM | TGI (HCT-15 colon): 3.53 µM | GI50 (LOX IMVI melanoma): 1.72 µM | TGI (LOX IMVI melanoma): 3.28 µM | GI50 (CCRF-CEM leukemia): 3.13 µM | TGI (CCRF-CEM leukemia): 30.7 µM | GI50 (SNB-75 CNS): 5.8 µM | TGI (SNB-75 CNS): 20.6 µM | GI50 (EKVX NSCLC): 9.18 µM | TGI (EKVX NSCLC): 21.6 µM | GI50 (MDA-MB-435): 2.67 µM | TGI (MDA-MB-435): 9.09 µM | GI50 (SK-MEL-2 melanoma): 6.47 µM | TGI (SK-MEL-2 melanoma): 20 µM | GI50 (SW-620 colon): 2.29 µM | TGI (SW-620 colon): 5.39 µM | GI50 (HT29 colon): 3.09 µM | TGI (HT29 colon): 10.1 µM | GI50 (SF-539 CNS): 2.8 µM | TGI (SF-539 CNS): 8.64 µM | GI50 (UACC-257 melanoma): 2.57 µM | TGI (UACC-257 melanoma): 7.49 µM | GI50 (SF-295 CNS): 13.8 µM | TGI (SF-295 CNS): 27.3 µM | GI50 (A549 NSCLC): 12.2 µM | TGI (A549 NSCLC): 28.5 µM | GI50 (SR leukemia): 2.35 µM | TGI (SR leukemia): 7.96 µM | GI50 (OVCAR-5 ovarian): 4.69 µM | TGI (OVCAR-5 ovarian): 17.5 µM | GI50 (ACHN renal): 2.1 µM | TGI (ACHN renal): 4.42 µM | GI50 (UACC-62 melanoma): 3.77 µM | TGI (UACC-62 melanoma): 14.6 µM | GI50 (T-47D breast): 3.5 µM | TGI (T-47D breast): 16.6 µM | GI50 (SK-OV-3 ovarian): 16 µM | TGI (SK-OV-3 ovarian): 30.1 µM | GI50 (CAKI-1 renal): 2.78 µM | TGI (CAKI-1 renal): 10.8 µM | GI50 (OVCAR-4 ovarian): 6.5 µM | TGI (OVCAR-4 ovarian): 19.5 µM | GI50 (SK-MEL-5 melanoma): 4.99 µM | TGI (SK-MEL-5 melanoma): 17.2 µM | GI50 (MOLT-4 leukemia): 2.68 µM | TGI (MOLT-4 leukemia): 7.74 µM | GI50 (A498 renal): 16 µM | TGI (A498 renal): 29.7 µM | GI50 (OVCAR-8 ovarian): 3.14 µM | TGI (OVCAR-8 ovarian): 11.7 µM | GI50 (MCF7 breast): 3 µM | TGI (MCF7 breast): 13.1 µM | GI50 (IGROV1 ovarian): 4.52 µM | TGI (IGROV1 ovarian): 15.9 µM | GI50 (UO-31 renal): 2.01 µM | TGI (UO-31 renal): 4.74 µM | GI50 (KM12 colon): 7.64 µM | TGI (KM12 colon): 24.2 µM | GI50 (HCC-2998 colon): 4.08 µM | TGI (HCC-2998 colon): 14.6 µM | GI50 (RPMI-8226 leukemia): 2.63 µM | TGI (RPMI-8226 leukemia): 8.32 µM | GI50 (COLO 205 colon): 1.96 µM | TGI (COLO 205 colon): 4.25 µM | GI50 (U251 CNS): 4.35 µM | TGI (U251 CNS): 15.7 µM
